From article PMC9731497, “Identification of potent anti-Cryptosporidium new drug leads by screening traditional Chinese medicines” (PLOS Neglected Tropical Diseases, 2022)
Counter-ions that a name gives are not always drawn. Like-named read-outs stand apart in the source and are kept apart here.

Columns and labels:
[1] = test system: C. parvum; test: Histopathological analysis and immunohistochemistry of ileum of C. parvum-infected mice; type: in vivo, Cryptosporidium parvum; parameters: key to severity of C. parvum infection in ileum, Score: -, no oocysts; 1+, mild focal infection; 2+, moderate multifocal infection; 3+, severe diffuse infection; conditions: for severity of C. parvum infection in ileum, Score: HE and immunohistochemistry, most severe area, day 14, dose not stated; for reduction of oocysts, histopathological and scanning electron microscopy findings: ileum of infected treated mice (S2 Fig)
Protocol: (§1) We performed a histopathological analysis to evaluate the growth inhibitory effects and toxicity of the hit compounds in C. parvum-infected mice. In brief, ileum was collected, fixed in 10% neutral buffered formalin, and paraffin-embedded. Each section was cut to a thickness of 4 μm for hematoxylin and eosin (HE) staining and immunohistochemistry. Immunohistochemistry (IHC) was performed following standard techniques using the Envision+ system (Agilent Technologies, Inc., Santa Clara, CA) and 3,3-diaminobenzidine (DAB)(Dojindo, Kumamoto, Japan). Anti-Toxoplasma gondii (RH strain) rabbit polyclonal IgG (Abcam, Cambridge, UK) was used as the primary antibody. The antibody cross reacts with C. Parvum. To reduce the endogenous peroxidase activity, the sections were incubated with 3% H2O2 for 5 minutes. Sections were incubated with primary antibodies overnight at 4°C. After washing with PBS with Tween 20 (PBST), sections were incubated with Envision+ single polymer solution (Agilent Technologies Inc.) for 30 minutes at room temperature. Sections were counterstained with Mayer’s hematoxylin. The severity of C. parvum infection was evaluated in the most severe area, and scored from—to 3+ (-, no oocysts; 1+, mild focal infection; 2+, moderate multifocal infection; 3+, severe diffuse infection). Sub-effects of drugs (hepatocellular damage) were evaluated for major histological changes in karyomegaly, hepatocellular hypertrophy, and interstitial fibrosis/inflammation. We also checked the organs (liver, heart, lung, kidney, and intestines) alteration at necropsy whether it has abnormal or normal.

[2] = test system: C. parvum HNJ-1 strain; test: In vivo C. parvum growth inhibition assay (oocyst shedding in feces of infected SCID mice, sugar flotation); parameters: species or system Cryptosporidium parvum; conditions: for % reduction in oocyst shedding: SCID mice n=3, vs untreated infected control; for % of oocysts shedding / % reduction in oocysts shedding: initial dose-finding (S1 Table), 1 mouse; for numbers of oocysts discharged in the feces: 50, 25 and 12.5 mg/kg oral, infected SCID mice
[3] = for body weight of treated infected mice: initial dose-finding doses, 11 consecutive days (S1 Fig)
Protocol: The growth inhibitory effect of the hit compounds was assessed in a mouse model infected with C. parvum oocysts. In this experiment, four-week-old female SCID mice (Charles River Laboratories, Shizuoka, Japan) were used. In the infected groups, mice were orally inoculated with 1.0 × 10^5 C. parvum oocysts by using sterile gavage needles. Initially, four compounds were tested at different concentrations to figure out the optimum dosages. Six groups of mice were given oral dosages of 50, 25, and 12.5 mg/kg body weight (BW) of two compounds (alisol-A and alisol-B). […] Bufotalin was given orally at three different doses to the other mouse group: 0.1, 0.05, and 0.025 mg/kg BW. […] The positive control group consisted of infected and untreated mice, whereas the negative control group consisted of noninfected and untreated mice. Treatment began on the third day after infection and lasted until the thirteenth day. The body weight and condition were checked every day, and treatment was given based on the body weight. On days 1, 3, 6, 7, 9, 12, 14, fecal samples were taken. The total number of oocysts per gram was calculated after counting the oocysts in the feces using the sugar flotation method. The treated and untreated mice were euthanized by cervical dislocation on day 14, and a thorough necropsy was performed.

[4] = Liver histology (sub-effects of drugs, hepatocellular damage) in treated mice; type: in vivo, SCID mice; conditions: HE stain, infected treated mice (S3 Fig)
Protocol: as §1

[5] = test system: C. parvum HNJ-1 strain; test: In vitro C. parvum growth inhibition assay (Sporo-Glo staining, fluorescence microscopy count in infected HCT-8 cells); type: cell-based, Cryptosporidium parvum; conditions: for EC50 / inhibition at 1 µM: Cryptosporidium parvum; for EC50: read-out: EC50 value; for inhibition at 1 µM: read-out: Parasite inhibition (%); for Selectivity index: ratio of CC50 (HCT-8) / EC50 (C. parvum)
Protocol: The primary screening of compounds for C. parvum was performed as follows: HCT-8 cells were seeded in 96-well plates at a density of 2 × 10^4 cells/well and allowed to grow overnight. Before infecting cells, Cryptosporidium oocysts were excysted to sporozoites. 87 compounds were tested against C. parvum at a single concentration of 1 μM. Each compound was tested once. Infected HCT-8 cells and uninfected HCT-8 cells were used as positive and negative controls, respectively, in medium containing 0.1% DMSO. Nitazoxanide was used as a standard comparative drug. In vitro inhibition assays were carried out as previously described. Briefly, oocysts were suspended in 1 ml of 0.1% sodium hypochlorite in PBS, incubated for 5 min at 4°C, centrifuged for 10 min at 3000 rpm, and washed three times in PBS. The oocysts were then suspended in excystation solution consisting of 0.75% sodium taurocholate and 0.25% trypsin dissolved in 0.1 M phosphate buffer (with 93.4 mM K2HPO4 and 6.5 mM KH2PO4; pH 8.0) and incubated at 37°C for 1 h. The oocyst/sporozoite suspensions were then rinsed in 1 x PBS (with 137 mM NaCl, 2.7 mM KCl, 8 mM Na2HPO4, and 2 mM KH2PO4; pH 7.5) once more before being filtered through a 5-μm pore-size PVDF filter (Millipore, Burlington, MA, USA) with 5 ml syringe to remove the oocyst wall. HCT-8 cells were seeded in 96-well plates (Thermo Fisher Scientific Inc., MA, USA) and incubated overnight. The cells were then infected with C. parvum sporozoites (4 ×10^4 sporozoites/well) containing in RPMI-1640 medium for 3 h. After 3h inoculation, the non-infected parasite or debris were washed with new RPMI-1640 media. At this point, in RPMI-1640 medium containing 1 μM library compounds were added. Infected cells were incubated for an additional 45 h. Following incubation, the infected cells were fixed for 10 minutes in ice-cold 100% methanol at room temperature. Plates were then carefully rinsed 3 times with PBS. The parasite infected cells were then blocked with 1% bovine serum albumin (BSA) in PBS for 30 minutes and then stained with Sporo-Glo (an anti-Cryptosporidium polyclonal antibody) (Waterborne Environmental, Inc., VA, USA) protected from light for 1 h at room temperature. Finally, cells were washed twice with 1 x PBS-T (1 x PBS supplemented with 0.01% Tween). A Keyence BZ-II 9000 was used to capture the images (KEYENCE, Osaka, Japan). The plates were imaged with a HS all-in-one fluorescence microscope using a 20 x objective. The image output was imported into Microsoft excel for data organization and analyses. All C. parvum parasite in the well were counted.
For a second investigation, four selective hit compounds were used to determine the half-maximum inhibitory concentration (EC50). The parasites were treated with various doses of compounds (ranging from 0.008–1 μM). HCT-8 cells (2 × 10^4 cells/well) were grown for 24 h before being infected with 4 × 10^4 C. parvum sporozoites in 96-well plates. […] Sporo-Glo was used for C. parvum staining as described above. Fluorescence microscopy with a Keyence BZ-II 9000 imager was used to count all Cryptosporidium in the wells (KEYENCE, Osaka, Japan). EC50 vales were determined by analyzing dose-response curves made by GraphPad Prism (GraphPad Software, CA, USA).

[6] = test system: HCT-8 cells; test: Host cell viability assay (Cell-Titer Glo); conditions: HCT-8 cells, 48 h, 1 μM
Protocol: (§2) HCT-8 cells (4 × 10^4 cells/well) 100 μl were seeded in 96-well plates, cultured for 24 h, and then treated for 48 h with different concentrations of hit compounds (10^1, 1, 10^−1, 10^−2, 10^−3, 10^−4 μM). After a 48-h incubation period, equilibrate the 96-well plates in room temperature (RT) for 30 minutes. Then, equal volume of Cell-Titer Glo (Promega) reagent was added to each treated well, the plate was shaken on an orbital shaker for 2 minutes then incubated for 10 minutes at RT. The luminescence was quantified by the GloMax Navigator plate reader (Promega, Japan) and the cell viability was evaluated as directed by the kit manufacturer. The luminescence signal of control wells containing DMSO was set to 100% cell viability. […] Graph Pad Prism 7.0.1 was used to determine CC50 values.

[7] = Host cell viability assay (Cell-Titer Glo)
Protocol: as §2

[8] = human, Host cell viability (%), HCT-8 cells, 48 h, 1 μM

Row | Structure (SMILES) | severity of C. parvum infection in ileum, Score [1] | body weight of treated infected mice [3] | histological findings in liver [4] | EC50 ([5]; HCT-8, 45 h) [nM] | inhibition at 1 µM ([5]; HCT-8, 45 h) [%] | Host cell viability (%) [6] [%] | CC50 at 48 h ([7]; human) [nM] | viability at 48 h, 1 µM [7, 8] [%] | Selectivity index [5] | reduction of oocysts, histopathological and scanning electron microscopy findings [1] | numbers of oocysts discharged in the feces [2] | % of oocysts shedding ([2]; 12.5 mg/kg BW, 11 days) [%] | % reduction in oocysts shedding ([2]; 12.5 mg/kg BW, 11 days) [%] | also measured
1 | CN1[C@@H]2CC[C@H]1C[C@@H](OC(=O)C(CO)c1ccccc1)C2 (some centres unmarked) [Atropine sulfate, reference compound] | 2+ | not significant | inflammation | 254 ± 30.3 | 72.3 |  |  |  |  |  |  |  |  | No. of oocysts, Mean ([2]; 50 mg/kg BW oral, 11 days, SCID mice n=3, mean of days 3, 6, 7, 9, 12, 14): 96.6; % reduction in oocyst shedding ([2]; 50 mg/kg BW oral, 11 days): 56.2%; No. of oocysts, Mean ([2]; 100 mg/kg BW oral, 11 days, SCID mice n=3, mean of days 3, 6, 7, 9, 12, 14): 91.1; % reduction in oocyst shedding ([2]; 100 mg/kg BW oral, 11 days): 58.7%; No. of oocysts, Mean ([2]; 200 mg/kg BW oral, 11 days (day 3–13 p.i.), SCID mice n=3, mean of oocysts shed on days 3, 6, 7, 9, 12, 14): 71.1; % reduction in oocyst shedding ([2]; 200 mg/kg BW oral, 11 days): 67.8%; % of oocysts shedding ([2]; 25 mg/kg BW, 11 days): 75.2%; % reduction in oocysts shedding ([2]; 25 mg/kg BW, 11 days): 24.8%; % reduction in oocysts shedding ([2]; 50 mg/kg BW, 11 days): 50.9%; % of oocysts shedding ([2]; 100 mg/kg BW, 11 days): 45.1%; % reduction in oocysts shedding ([2]; 100 mg/kg BW, 11 days): 54.9%
2 | CC(=O)O[C@H]1C[C@]2(O)[C@@H]3CC[C@@H]4C[C@@H](O)CC[C@]4(C)[C@H]3CC[C@]2(C)[C@H]1c1ccc(=O)oc1 [Bufotalin] | 1+ | not significant | inflammation and hepatocellular hypertrophy | 63.4 ± 18.7 | 82.9 | 95.1 | 10900 | > 95 | 172.3 |  |  |  |  | No. of oocysts, Mean ([2]; 0.025 mg/kg BW oral, 11 days, SCID mice n=3, mean of days 3, 6, 7, 9, 12, 14): 92.3; % reduction in oocyst shedding ([2]; 0.025 mg/kg BW oral, 11 days): 58.2%; No. of oocysts, Mean ([2]; 0.05 mg/kg BW oral, 11 days, SCID mice n=3, mean of days 3, 6, 7, 9, 12, 14): 86.6; % reduction in oocyst shedding ([2]; 0.05 mg/kg BW oral, 11 days): 60.8%; No. of oocysts, Mean ([2]; 0.1 mg/kg BW oral, 11 days, SCID mice n=3, mean of days 3, 6, 7, 9, 12, 14): 48.5; % reduction in oocyst shedding ([2]; 0.1 mg/kg BW oral, 11 days): 78.1%; % of oocysts shedding ([2]; 0.1 mg/kg BW, 11 days): 28.8%; % reduction in oocysts shedding ([2]; 0.1 mg/kg BW, 11 days): 71.2%
3 | C[C@H](C[C@H](O)[C@H]1OC1(C)C)C1=C2C[C@H](O)[C@H]3[C@@]4(C)CCC(=O)C(C)(C)[C@@H]4CC[C@]3(C)[C@@]2(C)CC1 [Alisol-B] | 2+ |  |  | 79.6 ± 13.8 | 92.9 | 97.6 | 36700 | > 95 | 460.6 | no notable reduction of oocysts | no significant reduction | 61.3 | 38.7 | adverse effects / death of treated mice ([3]; mouse, in vivo): died
4 | C[C@H](C[C@H](O)[C@@H](O)C(C)(C)O)C1=C2C[C@H](O)[C@H]3[C@@]4(C)CCC(=O)C(C)(C)[C@@H]4CC[C@]3(C)[C@@]2(C)CC1 [Alisol-A] | 3+ | not significant |  |  |  | 99.5 |  |  | 484.4 | no notable reduction of oocysts | no significant reduction | 55.6 | 44.4 | body weight of treated infected mice ([3]; listed as alisol-A): no significant difference; adverse effects / death of treated mice ([3]; oral, at 50 and 25 mg/kg body weight, infected SCID mice): died; CC50 at 48 h ([7]; human, HCT-8 cells): 59600 nM; viability at 48 h, 1 µM ([7]; human, HCT-8 cells, Host cell viability (%), 48 h, 1 μM): > 95%; EC50 ([5]; HCT-8, C. parvum HNJ-1, 0.008–1 μM, 45 h, mean of three experiments): 123 ± 6.7 nM; inhibition at 1 µM ([5]; 1 μM, 45 h, C. parvum HNJ-1 strain in HCT-8 cells, first screen): 78.1%
